Measured values taken from ChEMBL document CHEMBL1124619, “Phencyclidine-like effects of tetrahydroisoquinolines and related compounds” (J Med Chem, 1989).

Key:
[1] = biological target: T1, Glutamate receptor ionotropic, NMDA 2C (Rattus norvegicus, UniProt Q00961); test: Inhibition of [3H]1-[1-(2-thienyl) piperidine ([3H]TCP) binding to PCP receptor
[2] = biological target: T2, Sigma non-opioid intracellular receptor 1 (Rattus norvegicus, UniProt Q9R0C9); test: Inhibition of [3H]- N-allylnormetazocine ([3H]NANM) binding to sigma receptor
T2 sequence (Q9R0C9 whole entry): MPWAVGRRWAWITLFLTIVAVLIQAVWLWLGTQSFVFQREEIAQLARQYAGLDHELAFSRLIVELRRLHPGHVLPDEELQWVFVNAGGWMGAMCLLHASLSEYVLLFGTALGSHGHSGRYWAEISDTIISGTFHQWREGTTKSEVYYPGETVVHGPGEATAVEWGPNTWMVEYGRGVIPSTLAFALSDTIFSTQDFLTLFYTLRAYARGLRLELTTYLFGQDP

[3] = biological target: Glutamate receptor ionotropic, NMDA 2C (Rattus norvegicus) (UniProt Q00961); test: (§1) Compound was tested for induction of phencyclidine (PCP) like ataxia behavior; format: functional
Chain of Glutamate receptor ionotropic, NMDA 2C (Rattus norvegicus) (Q00961 20-1237 limits assumed): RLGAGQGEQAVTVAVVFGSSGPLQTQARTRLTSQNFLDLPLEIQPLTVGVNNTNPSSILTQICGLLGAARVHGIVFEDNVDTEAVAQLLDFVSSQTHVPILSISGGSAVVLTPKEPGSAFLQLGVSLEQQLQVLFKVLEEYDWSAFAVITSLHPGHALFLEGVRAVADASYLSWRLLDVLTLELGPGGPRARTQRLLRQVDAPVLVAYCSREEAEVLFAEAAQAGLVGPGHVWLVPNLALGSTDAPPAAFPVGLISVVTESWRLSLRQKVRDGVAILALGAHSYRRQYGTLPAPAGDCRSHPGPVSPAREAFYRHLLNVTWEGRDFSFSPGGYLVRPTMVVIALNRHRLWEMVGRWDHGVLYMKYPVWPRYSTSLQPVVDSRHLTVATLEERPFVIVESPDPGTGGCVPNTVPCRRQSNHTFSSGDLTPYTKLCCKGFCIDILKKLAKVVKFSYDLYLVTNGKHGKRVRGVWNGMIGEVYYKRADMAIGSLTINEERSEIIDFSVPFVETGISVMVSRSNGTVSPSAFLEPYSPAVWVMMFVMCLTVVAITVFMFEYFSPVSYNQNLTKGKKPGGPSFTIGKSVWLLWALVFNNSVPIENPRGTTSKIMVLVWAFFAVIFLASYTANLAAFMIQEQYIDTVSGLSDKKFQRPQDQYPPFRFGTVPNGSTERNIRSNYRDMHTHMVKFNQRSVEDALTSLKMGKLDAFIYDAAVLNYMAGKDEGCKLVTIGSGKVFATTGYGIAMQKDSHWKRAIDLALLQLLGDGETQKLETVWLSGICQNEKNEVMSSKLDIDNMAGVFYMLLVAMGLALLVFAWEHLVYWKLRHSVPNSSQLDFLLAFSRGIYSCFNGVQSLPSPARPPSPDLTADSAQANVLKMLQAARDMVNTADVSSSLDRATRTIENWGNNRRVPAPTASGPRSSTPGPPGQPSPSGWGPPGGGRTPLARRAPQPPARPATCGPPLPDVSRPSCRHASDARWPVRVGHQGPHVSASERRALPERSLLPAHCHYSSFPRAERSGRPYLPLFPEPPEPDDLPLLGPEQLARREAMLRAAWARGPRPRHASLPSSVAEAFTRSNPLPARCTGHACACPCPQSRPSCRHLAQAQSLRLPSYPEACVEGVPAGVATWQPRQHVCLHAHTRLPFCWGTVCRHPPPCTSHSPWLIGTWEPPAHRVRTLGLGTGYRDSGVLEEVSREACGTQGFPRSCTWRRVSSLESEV

[4] = biological target: Glutamate receptor ionotropic, NMDA 2C (Rattus norvegicus) (UniProt Q00961); test: (§2) Compound was tested for induction of phencyclidine (PCP) like stereotyped behavior; format: functional
[5] = biological target: T2, Sigma non-opioid intracellular receptor 1; test: Inhibition of [3H]- N-allylnormetazocine ([3H]-NANM) binding to sigma receptors; NI = No detectable inhibition of binding at 30 uM
[6] = biological target: T1, Glutamate receptor ionotropic, NMDA 2C; test: Inhibition of [3H]1-[1-(2-thienyl) piperidine ([3H]TCP) binding to phencyclidine receptor; NI = No detectable inhibition of binding at 30 uM
Rattus norvegicus [7] = organism: Rattus norvegicus; test: as §2; format: functional
Rattus norvegicus [8] = organism: Rattus norvegicus; test: as §1; format: functional
[9] = biological target: T1, Glutamate receptor ionotropic, NMDA 2C; test: Inhibition of [3H]1-[1-(2-thienyl) piperidine ([3H]TCP) binding to PCP receptor; NI = No detectable inhibition of binding at 30 uM

T1 sequence (Q00961 whole entry): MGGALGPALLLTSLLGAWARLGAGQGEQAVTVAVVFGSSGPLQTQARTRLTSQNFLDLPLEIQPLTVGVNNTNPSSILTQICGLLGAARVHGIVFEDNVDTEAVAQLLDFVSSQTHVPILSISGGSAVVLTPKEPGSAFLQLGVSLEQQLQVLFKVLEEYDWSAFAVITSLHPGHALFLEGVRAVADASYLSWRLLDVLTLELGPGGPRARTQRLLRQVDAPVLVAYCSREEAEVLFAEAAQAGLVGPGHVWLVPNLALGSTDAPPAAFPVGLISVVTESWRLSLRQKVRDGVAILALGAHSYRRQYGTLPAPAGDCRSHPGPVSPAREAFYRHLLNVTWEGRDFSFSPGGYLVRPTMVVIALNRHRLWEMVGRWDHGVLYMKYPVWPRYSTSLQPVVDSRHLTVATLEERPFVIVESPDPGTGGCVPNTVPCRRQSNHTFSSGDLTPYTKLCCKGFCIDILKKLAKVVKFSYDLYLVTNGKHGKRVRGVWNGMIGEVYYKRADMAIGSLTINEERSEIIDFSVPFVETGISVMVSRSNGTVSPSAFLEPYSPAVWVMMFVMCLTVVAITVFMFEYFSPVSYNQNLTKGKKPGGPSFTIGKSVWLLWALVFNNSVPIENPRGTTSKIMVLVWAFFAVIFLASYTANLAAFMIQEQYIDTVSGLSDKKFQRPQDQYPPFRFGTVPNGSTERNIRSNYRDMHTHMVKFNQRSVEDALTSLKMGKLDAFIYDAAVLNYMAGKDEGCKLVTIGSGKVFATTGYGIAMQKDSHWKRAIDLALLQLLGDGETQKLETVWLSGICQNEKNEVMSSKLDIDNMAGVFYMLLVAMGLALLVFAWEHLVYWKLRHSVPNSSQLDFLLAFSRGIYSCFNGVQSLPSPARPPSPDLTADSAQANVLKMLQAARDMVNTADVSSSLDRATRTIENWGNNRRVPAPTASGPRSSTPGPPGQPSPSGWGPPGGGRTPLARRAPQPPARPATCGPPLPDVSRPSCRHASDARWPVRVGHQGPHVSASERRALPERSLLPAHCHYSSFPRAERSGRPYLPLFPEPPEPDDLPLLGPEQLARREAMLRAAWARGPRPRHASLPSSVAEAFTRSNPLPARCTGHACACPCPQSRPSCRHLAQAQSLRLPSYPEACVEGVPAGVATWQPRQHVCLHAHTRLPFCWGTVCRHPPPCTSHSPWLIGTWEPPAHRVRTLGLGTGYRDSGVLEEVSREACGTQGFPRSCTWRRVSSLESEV

Row | SMILES | IC50 [2] | other results
1 | COc1ccc(C2NCCc3ccccc32)cc1 (stereo unspecified) | 2.2 µM | IC50 [1]: 2.5 µM
2 | c1ccc2c(c1)CCNC2C1CCCCC1 (stereo unspecified) | 11 µM | 
3 | C=CCN1CCc2ccccc2C1c1ccccc1 (stereo unspecified) | 1.3 µM | 
4 | CC1Cc2ccccc2C(C)N1 (stereo unspecified) | 15 µM | 
5 | CC(C)C1c2sccc2CCN1C (stereo unspecified) | 7.8 µM | IC50 [1]: 17 µM
6 | CN1CCc2ccccc2C1c1ccccc1 (stereo unspecified) | 2.9 µM | 
7 | c1ccc(C2(N3CCCCC3)CCCCC2)cc1 [PHENCYCLIDINE] | 0.53 µM | ED50 [3]: 6.5 mg/kg; ED50 [4]: 4.7 mg/kg
8 | c1ccc(C2CNCc3ccccc32)cc1 (stereo unspecified) | 4.2 µM | 
9 | c1ccc2c(c1)CCNC21CCCCC1 |  | IC50 [5]: Not Active; IC50 [6]: Not Active
10 | C=CCN1CC[C@]2(C)c3ccccc3CC1[C@@H]2C | 0.05 µM | 
11 | C=CCN1CCc2ccsc2C1C(C)C (stereo unspecified) | 5 µM | IC50 [1]: 8.5 µM
12 | C=CCN1CCc2ccccc2C1c1ccc2ccccc2c1 (stereo unspecified) | 11 µM | IC50 [6]: Not Active
13 | c1csc(C2NCCc3ccccc32)c1 (stereo unspecified) | 3.8 µM | IC50 [1]: 7.6 µM; ED50 (Rattus norvegicus [7]): 54 mg/kg
14 | c1ccc(CN2CCc3ccccc3C2)cc1 | 7.8 µM | IC50 [6]: Not Active
15 | c1ccc(CC2NCCc3ccccc32)cc1 (stereo unspecified) | 0.43 µM | ED50 [3]: 42 mg/kg; ED50 [4]: 26 mg/kg
16 | COc1ccccc1-c1cccc2c1CNCC2 | 1.8 µM | IC50 [1]: 0.9 µM; ED50 (Rattus norvegicus [7]): 20 mg/kg; ED50 (Rattus norvegicus [8]): 22 mg/kg
17 | CC1Cc2ccccc2CN1Cc1ccccc1 (stereo unspecified) | 3.2 µM | 
18 | CCN1CCc2ccccc2C1c1ccccc1 (stereo unspecified) | 1.3 µM | 
19 | CC(C)C1NCCc2ccccc21 (stereo unspecified) | 2.5 µM | 
20 | C=CCN1CCc2ccsc2C1c1ccccc1 (stereo unspecified) | 20 µM | IC50 [9]: Not Active

Row | SMILES | IC50 [2] | other results
21 | c1ccc(C2Cc3ccccc3CN2)cc1 (stereo unspecified) | 2.6 µM | ED50 [3]: 18 mg/kg; ED50 [4]: 19 mg/kg
22 | C=CCN1CCc2ccccc2C1C1CCCCC1 (stereo unspecified) | 3.1 µM | 
23 | Cc1ccc(C2NCCc3ccccc32)cc1 (stereo unspecified) | 5.6 µM | 
24 | CC(C)C1NCCc2ccsc21 (stereo unspecified) | 3.8 µM | IC50 [1]: 17 µM
25 | C=CCN1C(C)Cc2ccccc2C1C (stereo unspecified) | 1.6 µM | 
26 | c1ccc(C2NCCc3ccccc32)cc1 (stereo unspecified) |  | ED50 [3]: > 20 mg/kg; ED50 [4]: 25 mg/kg
27 | CC1NCCc2ccsc21 (stereo unspecified) | 11 µM | IC50 [1]: > 30 µM
28 | c1ccc(C2NCCCc3ccccc32)cc1 (stereo unspecified) |  | IC50 [5]: Not Active; IC50 [6]: Not Active
29 | Clc1ccc(C2NCCc3ccccc32)cc1 (stereo unspecified) | 3.4 µM | 
30 | c1ccc(C2NCCc3ccsc32)cc1 (stereo unspecified) | 6.3 µM | IC50 [1]: 8.8 µM; ED50 (Rattus norvegicus [7]): > 50 mg/kg; ED50 (Rattus norvegicus [8]): > 50 mg/kg
31 | c1ccc(-c2cccc3c2CNCC3)cc1 | 2.7 µM | ED50 [3]: 44 mg/kg; ED50 [4]: 28 mg/kg
32 | CCOCCN1CCc2ccccc2C1c1ccccc1 (stereo unspecified) | 5.4 µM | IC50 [1]: 8.2 µM
33 | c1ccc2c(c1)CCNC2c1ccc2ccccc2c1 (stereo unspecified) | 10 µM | 
34 | Fc1ccc(C2NCCc3ccccc32)cc1 (stereo unspecified) | 1.8 µM | ED50 [3]: 49 mg/kg; ED50 [4]: 38 mg/kg
35 | c1csc(C2(N3CCCCC3)CCCCC2)c1 [TENOCYCLIDINE] | 0.24 µM | 
36 | CC(C)CC1NCCc2ccccc21 (stereo unspecified) | 5 µM | 
37 | CN1CCc2ccccc2C1 | 2.7 µM | 
38 | CCN1CCc2ccsc2C1C(C)C (stereo unspecified) |  | IC50 [1]: 12 µM; IC50 [5]: Not Active
39 | CC1Cc2ccccc2CN1C (stereo unspecified) | 2.6 µM | 
40 | c1ccc(C2NCc3ccccc32)cc1 (stereo unspecified) | > 30 µM | 
